# According to article PMC3404986, “Pyridoxal 5′-Phosphate Is a Slow Tight Binding Inhibitor of E. coli Pyridoxal Kinase” (PLoS ONE, 2012):
# Key:
# [1] = target: T1, ePL kinase (E. coli pyridoxal kinase 1, PL kinase1) (Escherichia coli, UniProt P40191); assay: size-exclusion chromatography, then coupled enzymatic ADP assay of denatured complex; type: binding; details: complex from PLP 0.5 mM + MgADP 1 mM + MgCl2 0.5 mM, pH 7.5, 37°C, 1 h; ternary complex with PLP
# T1 construct: gene pdxK; full length, recombinant from E. coli; wild type untagged (as previously described); K229Q His-tagged (C-terminus; pET28a NdeI/EcoRI)
# Text: size-exclusion chromatography, then coupled enzymatic ADP assay of denatured complex on ePL kinase (E. coli pyridoxal kinase 1, PL kinase1)
# [2] = target: T1, ePL kinase (E. coli pyridoxal kinase 1, PL kinase1); assay: CD at […] nm, bound PLP removed by PLP phosphatase; type: binding; details: complex formed from PL + MgATP; 10 µM PLP phosphatase as trap, pH 7.5, 37°C; covalent, reversible aldimine; only part of the PLP released
# [3] = target: T1, ePL kinase (E. coli pyridoxal kinase 1, PL kinase1); assay: Sephadex G-50 spin column, absorbance of bound PLP at […] nm; details: PLP without nucleotide, 0.2 mM MgCl2, pH 7.5, 37°C; slow tight binding inhibitor; covalent, reversible aldimine, K229 suggested
%ADP [1] [%],rate of dissociation [2] [min⁻¹],Rate of complex formation [3] [min⁻¹],Structure (SMILES)
43,–,–,Nc1ncnc2c1ncn2[C@@H]1O[C@H](COP(=O)(O)OP(=O)(O)O)[C@@H](O)[C@H]1O [MgADP]
–,0.012,0.16,Cc1ncc(COP(=O)(O)O)c(C=O)c1O [PLP]
